Measurements from US10975056B2 (GlaxoSmithKline Intellectual Property Development Limited, priority 2016, dated 2021).
Where a name gives a salt, the structure may show the parent alone. Read-outs that look alike come from different tables or passages of the source.

Tests used:
[1] = tested on: erythroid progenitor cells (EPCs); assay: Fetal hemoglobin (HbF) ELISA in day 7 erythroid progenitor cells; format: cell-based, human; conditions: Homo sapiens, Erythroid progenitor cell, HbF ELISA, day 7 EPCs, 5 days; read-out: EPC ELISA (pEC50 category) (converted);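 further: for fetal hemoglobin induction normalized to vehicle-treated cells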
Method in brief: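 Day 7 EPCs from human bone marrow CD34+ cells were plated at 1,000 cells/well in media with 3 U/mL rhEPO. They were exposed to a 22-point dilution ([…]) for 5 days at 37 °C. Lysate HbF was measured by sandwich ELISA (OD450) and normalized to DMSO control wells.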

[2] = molecular target: DNMT1 (Homo sapiens, UniProt P26358); assay: DNMT1 biochemical activity, breaklight assay and/or SPA assay
[3] = binned activity in either the breaklight or the SPA assay
[4] = binned activity in either the breaklight or the SPA assay, read-out: DNMT1 BioChemical (pIC50 category) (converted)
[5] = breaklight assay and/or SPA assay, repeated experimental runs, read-out: average pIC50 against DNMT1 (converted)

Chain of DNMT1 (P26358 whole entry, looked up): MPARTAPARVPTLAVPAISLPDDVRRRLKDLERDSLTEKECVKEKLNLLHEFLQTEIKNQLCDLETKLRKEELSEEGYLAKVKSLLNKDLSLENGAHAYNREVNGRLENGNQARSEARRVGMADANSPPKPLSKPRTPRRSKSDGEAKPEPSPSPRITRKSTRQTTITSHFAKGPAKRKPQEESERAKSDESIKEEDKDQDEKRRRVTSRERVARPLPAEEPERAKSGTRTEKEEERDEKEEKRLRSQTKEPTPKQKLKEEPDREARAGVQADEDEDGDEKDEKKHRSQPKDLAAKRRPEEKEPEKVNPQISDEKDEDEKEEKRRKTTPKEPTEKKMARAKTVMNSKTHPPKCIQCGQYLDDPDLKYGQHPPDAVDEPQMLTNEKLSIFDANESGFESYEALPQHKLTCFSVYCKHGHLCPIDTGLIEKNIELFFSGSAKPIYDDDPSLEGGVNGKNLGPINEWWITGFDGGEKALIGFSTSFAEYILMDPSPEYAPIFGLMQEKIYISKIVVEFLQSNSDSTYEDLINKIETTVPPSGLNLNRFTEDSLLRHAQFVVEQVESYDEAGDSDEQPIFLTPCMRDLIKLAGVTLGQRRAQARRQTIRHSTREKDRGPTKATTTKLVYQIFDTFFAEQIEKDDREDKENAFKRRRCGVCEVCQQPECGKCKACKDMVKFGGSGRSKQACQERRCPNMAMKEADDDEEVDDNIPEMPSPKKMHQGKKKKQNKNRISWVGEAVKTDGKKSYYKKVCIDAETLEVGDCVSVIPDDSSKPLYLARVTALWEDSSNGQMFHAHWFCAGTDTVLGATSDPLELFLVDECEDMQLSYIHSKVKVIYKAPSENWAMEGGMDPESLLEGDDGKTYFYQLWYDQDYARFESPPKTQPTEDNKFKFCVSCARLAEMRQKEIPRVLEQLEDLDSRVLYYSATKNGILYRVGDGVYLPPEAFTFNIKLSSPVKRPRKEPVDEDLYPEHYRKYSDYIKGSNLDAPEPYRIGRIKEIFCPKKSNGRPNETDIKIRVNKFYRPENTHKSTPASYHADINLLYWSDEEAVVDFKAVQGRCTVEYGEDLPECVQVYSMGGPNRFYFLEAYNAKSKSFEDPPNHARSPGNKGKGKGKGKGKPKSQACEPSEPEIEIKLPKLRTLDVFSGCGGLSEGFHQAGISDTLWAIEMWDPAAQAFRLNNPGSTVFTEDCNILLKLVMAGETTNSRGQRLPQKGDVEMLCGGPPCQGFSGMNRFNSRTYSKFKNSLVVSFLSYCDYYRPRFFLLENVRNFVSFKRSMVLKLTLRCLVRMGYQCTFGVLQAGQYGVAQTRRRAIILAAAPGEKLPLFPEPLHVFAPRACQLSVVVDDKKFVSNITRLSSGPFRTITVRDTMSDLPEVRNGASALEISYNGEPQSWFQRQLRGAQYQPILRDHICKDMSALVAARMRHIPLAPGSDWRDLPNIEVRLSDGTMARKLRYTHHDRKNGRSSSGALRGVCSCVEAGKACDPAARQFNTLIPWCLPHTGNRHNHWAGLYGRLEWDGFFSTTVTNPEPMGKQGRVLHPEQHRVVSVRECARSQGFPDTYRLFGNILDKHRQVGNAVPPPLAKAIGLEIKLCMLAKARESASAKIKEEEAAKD

Compound	EC50 [1] [nM]	DNMT1 BioChemical (pIC50 category) [2, 3]	IC50 [2, 4] [nM]	IC50 [2, 5] [nM]	average pIC50 against DNMT1 ([2]; breaklight assay and/or SPA assay, repeated experimental runs)
CCc1c(C#N)c(SC(C(N)=O)c2ccc(F)cc2)nc(N2CCNCC2)c1C#N (stereo not shown) [Example 196, 2-((3,5-Dicyano-4-ethyl-6-(piperazin-1-yl)pyridin-2-yl)thio)-2-(4-fluorophenyl)acetamide, Trifluoroacetic Acid Salt]	< 316	D (Category D: ≥6.5)			
CCc1c(C#N)c(SCc2ccc(COC(C)=O)cc2)nc(N2CCCN(C)CC2)c1C#N [Example 82, 4-(((3,5-Dicyano-4-ethyl-6-(4-methyl-1,4-diazepan-1-yl)pyridin-2-yl)thio)methyl)benzyl acetate]	1000 to 31600		316 to 1000	316 to 1000	
CCc1c(C#N)c(SC(C(N)=O)c2ccccc2)nc(N2CCC(NCC(C)(C)C)CC2)c1C#N (stereo not shown) [Example 550, 2-((3,5-dicyano-4-ethyl-6-(4-(neopentylamino)piperidin-1-yl)pyridin-2-yl)thio)-2-phenylacetamide]	< 316	D (Category D: ≥6.5)			
CCc1c(C#N)c(SC(C(N)=O)c2ccccn2)nc(N2CC[C@H](O)C2)c1C#N (stereo partly drawn) [Example 322, 2-((3,5-Dicyano-4-ethyl-6-((S)-3-hydroxypyrrolidin-1-yl)pyridin-2-yl)thio)-2-(pyridin-2-yl)acetamide]	316 to 1000	D (Category D: ≥6.5)			
CCc1c(C#N)c(SC(C(N)=O)c2ccccc2)nc(N2CCC(OC(=O)[C@@H](N)C(C)C)CC2)c1C#N (stereo partly drawn) [Example 274, 1-(6-((2-Amino-2-oxo-1-phenylethyl)thio)-3,5-dicyano-4-ethylpyridin-2-yl)piperidin-4-yl (2S)-2-amino-3-methylbutanoate]	< 316	D (Category D: ≥6.5)			
N#Cc1c(SC(C(N)=O)c2ccccc2)nc(N2CCNC(=O)CC2)c(C#N)c1C1CC1 (stereo not shown) [Example 110, 2-{[3,5-Dicyano-4-cyclopropyl-6-(5-oxo-1,4-diazepan-1-yl)pyridin-2-yl]sulfanyl}-2-phenylacetamide]	1000 to 31600		316 to 1000	316 to 1000	
CCc1c(C#N)c(SC(C(N)=O)c2ccccc2)nc(N2CC(CC(N)=O)C2)c1C#N (stereo not shown) [Example 330, 2-((6-(3-(2-Amino-2-oxoethyl)azetidin-1-yl)-3,5-dicyano-4-ethylpyridin-2-yl)thio)-2-phenylacetamide]	1000 to 31600	D (Category D: ≥6.5)			
CCc1c(C#N)c(SC(C(N)=O)c2ccccc2)nc(N(C)Cc2ncc[nH]2)c1C#N (stereo not shown) [Example 364, 2-((6-(((1H-Imidazol-2-yl)methyl)(methyl)amino)-3,5-dicyano-4-ethylpyridin-2-yl)thio)-2-phenylacetamide]	< 316	D (Category D: ≥6.5)			
CC(=O)NCc1ccc(CSc2nc(N3CCCN(C)CC3)c(C#N)c(-c3ccco3)c2C#N)cc1 [Example 414]	1000 to 31600		316 to 1000		
CCc1c(C#N)c(SC(C(N)=O)c2ccc(F)cn2)nc(N2CCC(N3CCCC3)CC2)c1C#N (stereo not shown) [Example 211, 2-((3,5-Dicyano-4-ethyl-6-(4-(pyrrolidin-1-yl)piperidin-1-yl)pyridin-2-yl)thio)-2-(5-fluoropyridin-2-yl)acetamide, Formic Acid Salt]	< 316		316 to 1000		
CCc1c(C#N)c(SC(C(N)=O)c2ccccc2)nc(N2CCC(N3CCC[C@@H]3C)CC2)c1C#N (stereo partly drawn) [Example 453, 2-((3,5-dicyano-4-ethyl-6-(4-((S)-2-methylpyrrolidin-1-yl)piperidin-1-yl)pyridin-2-yl)thio)-2-phenylacetamide]	< 316	D (Category D: ≥6.5)			
CCc1c(C#N)c(SCc2ccc(NC(C)=O)cc2)nc(N2CCCN(C)CC2)c1C#N [Example 298, N-(4-(((3,5-Dicyano-4-ethyl-6-(4-methyl-1,4-diazepan-1-yl)pyridin-2-yl)thio)methyl)phenyl)acetamide]	< 316	D (Category D: ≥6.5)			
CCc1c(C#N)c(SC(C(N)=O)c2ccccc2)nc(N2CCN(C(=O)C3(N)CCOCC3)CC2)c1C#N (stereo not shown) [Example 141, 2-((6-(4-(4-Aminotetrahydro-2H-pyran-4-carbonyl)piperazin-1-yl)-3,5-dicyano-4-ethylpyridin-2-yl)thio)-2-phenylacetamide, Trifluoroacetic Acid Salt]	< 316	D (Category D: ≥6.5)			
CCc1c(C#N)c(SC(C(N)=O)c2ccccc2)nc(N2CCC(OCCN)CC2)c1C#N (stereo not shown) [Example 149, 2-((6-(4-(2-Aminoethoxy)piperidin-1-yl)-3,5-dicyano-4-ethylpyridin-2-yl)thio)-2-phenylacetamide, Trifluoroacetic Acid Salt]	< 316	D (Category D: ≥6.5)			> 6.5
CCc1c(C#N)c(SC(C(N)=O)c2ccccc2)nc(N2CCC(N)(C(N)=O)CC2)c1C#N (stereo not shown) [Example 251]	1000 to 31600		1000 to 31600		
CCc1c(C#N)c(SC(C(N)=O)c2ccc(S(=O)(=O)NC)cc2)nc(N2CCCN(C)CC2)c1C#N (stereo not shown) [Example 378]	1000 to 31600		316 to 1000		
CCc1c(C#N)c(SC(C(N)=O)c2ccccc2)nc(N2CCC(N3CCN(C)CC3)CC2)c1C#N (stereo not shown) [Example 450, 2-((3,5-dicyano-4-ethyl-6-(4-(4-methylpiperazin-1-yl)piperidin-1-yl)pyridin-2-yl)thio)-2-phenylacetamide]	< 316	D (Category D: ≥6.5)			
CCc1c(C#N)c(SC(C(N)=O)c2ccccc2)nc(N2CC[C@@H](N)[C@H](F)C2)c1C#N (relative stereo) [Example 508, rel-2-((6-(trans)-4-amino-3-fluoropiperidin-1-yl)-3,5-dicyano-4-ethylpyridin-2-yl)thio)-2-phenylacetamide]	< 316		< 316		
CCc1c(C#N)c(SC(C(N)=O)c2ccccc2)nc(N(C)CC(=O)NC[C@@H](O)CO)c1C#N (stereo partly drawn) [Example 666, 2-((6-((2-amino-2-oxo-1-phenylethyl)thio)-3,5-dicyano-4-ethylpyridin-2-yl)(methyl)amino)-N-((R)-2,3-dihydroxypropyl)acetamide]	1000 to 31600	D (Category D: ≥6.5)			
CCc1c(C#N)c(SC(C(N)=O)c2ccc(F)cc2)nc(N2CCC(N(C)C)CC2)c1C#N (stereo not shown) [Example 207, 2-((3,5-Dicyano-6-(4-(dimethylamino)piperidin-1-yl)-4-ethylpyridin-2-yl)thio)-2-(4-fluorophenyl)acetamide]	< 316		316 to 1000		
CCc1c(C#N)c(SC(C(N)=O)c2ccccc2)nc(N2CCC(O)(CN)CC2)c1C#N (stereo not shown) [Example 243, 2-((6-(4-(Aminomethyl)-4-hydroxypiperidin-1-yl)-3,5-dicyano-4-ethylpyridin-2-yl)thio)-2-phenylacetamide, Trifluoroacetic Acid Salt]	316 to 1000	D (Category D: ≥6.5)			
CCc1c(C#N)c(S[C@H](C(N)=O)c2ccccc2)nc(N2C[C@H](O)CO2)c1C#N (single isomer, unassigned) [Example 694]	1000 to 31600	D (Category D: ≥6.5)			
CCc1c(C#N)c(SC(C(N)=O)c2ccc(C(F)(F)F)cc2)nc(N2CCCN(C)CC2)c1C#N (stereo not shown) [Example 233, 2-((3,5-dicyano-4-ethyl-6-(4-methyl-1,4-diazepan-1-yl)pyridin-2-yl)thio)-2-(4-(trifluoromethyl)phenyl)acetamide]	< 316		316 to 1000		
CCc1c(C#N)c(SC(C(N)=O)c2ccccc2)nc(N2CCCN(CC(C)(C)O)CC2)c1C#N (stereo not shown) [Example 194, 2-((3,5-Dicyano-4-ethyl-6-(4-(2-hydroxy-2-methylpropyl)-1,4-diazepan-1-yl)pyridin-2-yl)thio)-2-phenylacetamide]	< 316		316 to 1000		
CCc1c(C#N)c(SCc2ccc(NC(=O)CN)cc2)nc(N2CCCN(C)CC2)c1C#N [Example 302, 2-Amino-N-(4-(((3,5-dicyano-4-ethyl-6-(4-methyl-1,4-diazepan-1-yl)pyridin-2-yl)thio)methyl)phenyl)acetamide]	> 31600		316 to 1000		
CCc1c(C#N)c(SC(C(N)=O)c2ccccc2)nc(N2CC[C@H](NCC(C)(C)O)C2)c1C#N (stereo partly drawn) [Example 541, 2-((3,5-dicyano-4-ethyl-6-((S)-3-((2-hydroxy-2-methylpropyl)amino)pyrrolidin-1-yl)pyridin-2-yl)thio)-2-phenylacetamide]	< 316	D (Category D: ≥6.5)			
CCc1c(C#N)c(SC(C(N)=O)c2ccccc2)nc(N2CCC(N(C)C3CCC3)CC2)c1C#N (stereo not shown) [Example 454, 2-((3,5-dicyano-6-(4-(cyclobutyl(methyl)amino)piperidin-1-yl)-4-ethylpyridin-2-yl)thio)-2-phenylacetamide]	< 316	D (Category D: ≥6.5)			
CCc1c(C#N)c(SCc2ccc(N(C)S(C)(=O)=O)cc2)nc(N2CCC(NCCO)CC2)c1C#N [Example 692, N-(4-(((3,5-dicyano-4-ethyl-6-(4-((2-hydroxyethyl)amino)piperidin-1-yl)pyridin-2-yl)thio)methyl)phenyl)-N-methylmethanesulfonamide]	< 316	D (Category D: ≥6.5)			
CCc1c(C#N)c(SCc2ccccc2)nc(N2CCC(NC(=O)C(C)(C)N)CC2)c1C#N [Example 95, 2-Amino-N-(1-(6-(benzylthio)-3,5-dicyano-4-ethylpyridin-2-yl)piperidin-4-yl)-2-methylpropanamide, Formic Acid Salt]	1000 to 31600		316 to 1000		
